The CheMixHub viscosity set
± gives the uncertainty stated by the source.

Test: xn = mol fraction of the nth substance listed

c1ccccc1 + CCCO
Settings | viscosity [mPa·s]
293.15 K, 101 kPa, x1 = 0.7 | 0.7259 ± 0.011
295.15 K, 101 kPa, x2 = 0.0129 | 0.6231 ± 0.017
295.15 K, 101 kPa, x2 = 0.01297 | 0.6234 ± 0.017
295.15 K, 101 kPa, x2 = 0.02571 | 0.6203 ± 0.016
295.15 K, 101 kPa, x2 = 0.0258 | 0.6203 ± 0.016
295.15 K, 101 kPa, x2 = 0.02588 | 0.6203 ± 0.016
295.15 K, 101 kPa, x2 = 0.03494 | 0.6193 ± 0.016
295.15 K, 101 kPa, x2 = 0.04358 | 0.6193 ± 0.016
295.15 K, 101 kPa, x2 = 0.06103 | 0.6204 ± 0.016
295.15 K, 101 kPa, x2 = 0.1016 | 0.6265 ± 0.017
295.15 K, 101 kPa, x2 = 0.2458 | 0.6758 ± 0.018
295.15 K, 101 kPa, x2 = 0.5664 | 0.9778 ± 0.026
295.15 K, 101 kPa, x2 = 0.9204 | 1.808 ± 0.048
298.15 K, 100 kPa, x2 = 0.059 | 0.6108 ± 0.073
298.15 K, 100 kPa, x2 = 0.1169 | 0.6226 ± 0.075
298.15 K, 100 kPa, x2 = 0.2295 | 0.6135 ± 0.074
298.15 K, 100 kPa, x2 = 0.2843 | 0.6582 ± 0.079
298.15 K, 100 kPa, x2 = 0.3733 | 0.7116 ± 0.086
298.15 K, 100 kPa, x2 = 0.5437 | 0.8989 ± 0.11
298.15 K, 100 kPa, x2 = 0.6252 | 1.017 ± 0.12
298.15 K, 100 kPa, x2 = 0.7044 | 1.166 ± 0.14
298.15 K, 100 kPa, x2 = 0.7814 | 1.289 ± 0.15
298.15 K, 100 kPa, x2 = 0.8563 | 1.469 ± 0.18
298.15 K, 100 kPa, x2 = 0.9291 | 1.719 ± 0.21
298.15 K, 101 kPa, x1 = 0.062 | 1.707 ± 0.018
298.15 K, 101 kPa, x1 = 0.1398 | 1.471 ± 0.015
298.15 K, 101 kPa, x1 = 0.295 | 1.132 ± 0.012
298.15 K, 101 kPa, x1 = 0.388 | 0.988 ± 0.01
298.15 K, 101 kPa, x1 = 0.4349 | 0.565
298.15 K, 101 kPa, x1 = 0.4661 | 0.887 ± 0.009
298.15 K, 101 kPa, x1 = 0.5335 | 0.394
298.15 K, 101 kPa, x1 = 0.5337 | 0.805 ± 0.008
298.15 K, 101 kPa, x1 = 0.6049 | 0.741 ± 0.008
298.15 K, 101 kPa, x1 = 0.6086 | 0.4578
298.15 K, 101 kPa, x1 = 0.7128 | 0.657 ± 0.007
298.15 K, 101 kPa, x1 = 0.806 | 0.626 ± 0.007
298.15 K, 101 kPa, x1 = 0.89 | 0.604 ± 0.006
298.15 K, 101.3 kPa, x1 = 0.1571 | 1.435 ± 0.038
298.15 K, 101.3 kPa, x1 = 0.3573 | 1.018 ± 0.027
298.15 K, 101.3 kPa, x1 = 0.5287 | 0.797 ± 0.021
298.15 K, 101.3 kPa, x1 = 0.7516 | 0.637 ± 0.017
298.15 K, 101.33 kPa, x1 = 0.1571 | 1.435 ± 0.011
298.15 K, 101.33 kPa, x1 = 0.2757 | 1.167 ± 0.029
298.15 K, 101.33 kPa, x1 = 0.3573 | 1.018 ± 0.0081
298.15 K, 101.33 kPa, x1 = 0.5287 | 0.797 ± 0.0064
298.15 K, 101.33 kPa, x1 = 0.6446 | 0.703 ± 0.018
298.15 K, 101.33 kPa, x1 = 0.7516 | 0.637 ± 0.0051
298.15 K, 101.33 kPa, x1 = 0.8737 | 0.599 ± 0.015
298.15 K, 101.33 kPa, x1 = 0.9369 | 0.592 ± 0.015
298.15 K, 101.33 kPa, x2 = 0.2 | 0.622 ± 0.012
303.15 K, 101 kPa, x1 = 0.062 | 1.522 ± 0.015
303.15 K, 101 kPa, x1 = 0.1398 | 1.319 ± 0.013
303.15 K, 101 kPa, x1 = 0.295 | 1.021 ± 0.01
303.15 K, 101 kPa, x1 = 0.388 | 0.892 ± 0.009
303.15 K, 101 kPa, x1 = 0.4661 | 0.808 ± 0.008
303.15 K, 101 kPa, x1 = 0.5337 | 0.737 ± 0.008
303.15 K, 101 kPa, x1 = 0.6049 | 0.68 ± 0.007
303.15 K, 101 kPa, x1 = 0.7128 | 0.609 ± 0.006
303.15 K, 101 kPa, x1 = 0.806 | 0.58 ± 0.006
303.15 K, 101 kPa, x1 = 0.89 | 0.566 ± 0.006
308.15 K, 100 kPa, x2 = 0.059 | 0.5422 ± 0.065
308.15 K, 100 kPa, x2 = 0.1169 | 0.5507 ± 0.066
308.15 K, 100 kPa, x2 = 0.2295 | 0.5825 ± 0.07
308.15 K, 100 kPa, x2 = 0.2843 | 0.5616 ± 0.068
308.15 K, 100 kPa, x2 = 0.3733 | 0.6014 ± 0.072
308.15 K, 100 kPa, x2 = 0.5437 | 0.7483 ± 0.09
308.15 K, 100 kPa, x2 = 0.6252 | 0.8508 ± 0.1
308.15 K, 100 kPa, x2 = 0.7044 | 0.9663 ± 0.12
308.15 K, 100 kPa, x2 = 0.7814 | 1.098 ± 0.13
308.15 K, 100 kPa, x2 = 0.8563 | 1.267 ± 0.15
308.15 K, 100 kPa, x2 = 0.9291 | 1.405 ± 0.17
308.15 K, 101 kPa, x1 = 0.062 | 1.369 ± 0.014
308.15 K, 101 kPa, x1 = 0.1398 | 1.182 ± 0.012
308.15 K, 101 kPa, x1 = 0.295 | 0.921 ± 0.01
308.15 K, 101 kPa, x1 = 0.388 | 0.81 ± 0.008
308.15 K, 101 kPa, x1 = 0.4661 | 0.736 ± 0.008
308.15 K, 101 kPa, x1 = 0.5337 | 0.678 ± 0.007
308.15 K, 101 kPa, x1 = 0.6049 | 0.63 ± 0.007
308.15 K, 101 kPa, x1 = 0.7128 | 0.566 ± 0.006
308.15 K, 101 kPa, x1 = 0.806 | 0.541 ± 0.006
308.15 K, 101 kPa, x1 = 0.89 | 0.527 ± 0.006
308.15 K, 101.3 kPa, x1 = 0.1571 | 1.155 ± 0.031
308.15 K, 101.3 kPa, x1 = 0.3573 | 0.834 ± 0.022
308.15 K, 101.3 kPa, x1 = 0.5287 | 0.668 ± 0.018
308.15 K, 101.3 kPa, x1 = 0.7516 | 0.552 ± 0.015
308.15 K, 101.33 kPa, x1 = 0.1571 | 1.155 ± 0.0092
308.15 K, 101.33 kPa, x1 = 0.3573 | 0.834 ± 0.0067
308.15 K, 101.33 kPa, x1 = 0.5287 | 0.668 ± 0.0053
308.15 K, 101.33 kPa, x1 = 0.7516 | 0.552 ± 0.0044
313.15 K, 101 kPa, x1 = 0.062 | 1.225 ± 0.013
313.15 K, 101 kPa, x1 = 0.1398 | 1.061 ± 0.011
313.15 K, 101 kPa, x1 = 0.295 | 0.835 ± 0.009
313.15 K, 101 kPa, x1 = 0.388 | 0.739 ± 0.008
313.15 K, 101 kPa, x1 = 0.4661 | 0.674 ± 0.007
313.15 K, 101 kPa, x1 = 0.5337 | 0.623 ± 0.007
313.15 K, 101 kPa, x1 = 0.6049 | 0.582 ± 0.006
313.15 K, 101 kPa, x1 = 0.7 | 0.5283 ± 0.0079
313.15 K, 101 kPa, x1 = 0.7128 | 0.528 ± 0.006
313.15 K, 101 kPa, x1 = 0.806 | 0.503 ± 0.005
313.15 K, 101 kPa, x1 = 0.89 | 0.493 ± 0.005
318.15 K, 101 kPa, x1 = 0.062 | 1.103 ± 0.011
318.15 K, 101 kPa, x1 = 0.1398 | 0.956 ± 0.01
318.15 K, 101 kPa, x1 = 0.295 | 0.76 ± 0.008
318.15 K, 101 kPa, x1 = 0.388 | 0.676 ± 0.007
318.15 K, 101 kPa, x1 = 0.4661 | 0.617 ± 0.007
318.15 K, 101 kPa, x1 = 0.5337 | 0.572 ± 0.006
318.15 K, 101 kPa, x1 = 0.6049 | 0.539 ± 0.006
318.15 K, 101 kPa, x1 = 0.7128 | 0.493 ± 0.005
318.15 K, 101 kPa, x1 = 0.806 | 0.47 ± 0.005
318.15 K, 101 kPa, x1 = 0.89 | 0.463 ± 0.005
323.15 K, 101.33 kPa, x2 = 0.2 | 0.44 ± 0.0088
